Reference: US6204293A, “Inhibitors of protein isoprenyl transferases” (University of Pittsburgh, priority 1998, dated 2001)

Target: T1, Rat brain protein farnesyltransferase (Rattus norvegicus, UniProt Q02293+Q04631)
T1 construct: Rat brain protein farnesyltransferase activity is measured; from tissue; host or cells: rat brain
Assay: % inhibition of farnesylation, scintillation proximity assay with biotin-K Ras B fragment
Type: biochemical
Details: Table 1; 1 × 10^-5 M
In short: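 Scintillation proximity read-out of farnesylation, using a biotinylated K Ras B fragment (0.1 mM final) in place of biotin-lamin. Enzyme purified from rat brain; results given as % inhibition.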

T1 sequence (Q02293 whole entry, one chain of several): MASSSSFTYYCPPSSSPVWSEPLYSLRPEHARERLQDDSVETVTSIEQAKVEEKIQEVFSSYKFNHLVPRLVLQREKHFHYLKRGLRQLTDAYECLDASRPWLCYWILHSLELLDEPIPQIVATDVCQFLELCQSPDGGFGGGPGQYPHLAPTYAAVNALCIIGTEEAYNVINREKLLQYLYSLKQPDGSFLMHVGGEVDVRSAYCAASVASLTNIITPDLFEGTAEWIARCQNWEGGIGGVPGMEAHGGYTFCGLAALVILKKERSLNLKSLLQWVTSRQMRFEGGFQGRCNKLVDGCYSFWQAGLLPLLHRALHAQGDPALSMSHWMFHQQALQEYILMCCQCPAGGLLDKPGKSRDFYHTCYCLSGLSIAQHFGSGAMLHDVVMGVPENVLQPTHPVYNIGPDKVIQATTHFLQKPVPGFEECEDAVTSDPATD

% inhibition at 1 × 10^-5 M	SMILES
44%	CSCC[C@H](NC(=O)c1ccc(CNCC(C)(C)CN(C)C)cc1-c1ccccc1)C(=O)O [Example 639]
55%	COc1cc2c(cc1OC)C(CNCc1ccc(C(=O)N[C@@H](CCSC)C(=O)O)c(-c3ccccc3)c1)=CC(C1CCCCC1)C2 (stereo partly shown) [Example 659]
43%	CSCC[C@H](NC(=O)c1ccc(CNCCC2CCCCC2)cc1-c1ccccc1)C(=O)O [Example 663]
75%	C=C[C@@H](CC1CCCCC1)NCc1ccc(C(=O)N[C@@H](CCSC)C(=O)O)c(-c2ccccc2)c1 [Example 664]
48%	CSCC[C@H](NC(=O)c1ccc(CNc2ccccc2N(C)C)cc1-c1ccccc1)C(=O)O [Example 672]
40%	CSCC[C@H](NC(=O)c1ccc(CNc2cccc(C)c2)cc1-c1ccccc1)C(=O)O [Example 674]
76%	CSCC[C@H](NC(=O)c1ccc(CNc2cccc(O)c2)cc1-c1ccccc1)C(=O)O [Example 676]
73%	CSCC[C@H](NC(=O)c1ccc(CNc2cccc(OC(F)(F)F)c2)cc1-c1ccccc1)C(=O)O [Example 678]
58%	CSCC[C@H](NC(=O)c1ccc(CNc2cccc(CO)c2)cc1-c1ccccc1)C(=O)O [Example 680]
57%	CSCC[C@H](NC(=O)c1ccc(CNc2cccc(N(C)C)c2)cc1-c1ccccc1)C(=O)O [Example 683]
48%	CSCC[C@H](NC(=O)c1ccc(CNc2cccc(CC(=O)O)c2)cc1-c1ccccc1)C(=O)O [Example 684]
55%	CSCC[C@H](NC(=O)c1ccc(CNc2cccc(CCC(=O)O)c2)cc1-c1ccccc1)C(=O)O [Example 685]
48%	CSCC[C@H](NC(=O)c1ccc(CNc2cccc(Oc3ccccc3)c2)cc1-c1ccccc1)C(=O)O [Example 686]
78%	CSCC[C@H](NC(=O)c1ccc(CNc2ccc(F)cc2)cc1-c1ccccc1)C(=O)O [Example 687]
71%	CSCC[C@H](NC(=O)c1ccc(CNc2ccc(I)cc2)cc1-c1ccccc1)C(=O)O [Example 688]
73%	CSCC[C@H](NC(=O)c1ccc(CNc2ccc(O)cc2)cc1-c1ccccc1)C(=O)O [Example 689]
61%	COc1ccc(NCc2ccc(C(=O)N[C@@H](CCSC)C(=O)O)c(-c3ccccc3)c2)cc1 [Example 690]

% inhibition at 1 × 10^-5 M	SMILES
74%	CSCC[C@H](NC(=O)c1ccc(CNc2ccc(C(C)C)cc2)cc1-c1ccccc1)C(=O)O [Example 692]
74%	CSCC[C@H](NC(=O)c1ccc(CNc2ccc(C3CCCCC3)cc2)cc1-c1ccccc1)C(=O)O [Example 699]
68%	CSCC[C@H](NC(=O)c1ccc(CNc2ccc(-c3ccccc3)cc2)cc1-c1ccccc1)C(=O)O [Example 700]
64%	CSCC[C@H](NC(=O)c1ccc(CNc2ccc(Oc3ccccc3)cc2)cc1-c1ccccc1)C(=O)O [Example 701]
79%	CSCC[C@H](NC(=O)c1ccc(CNc2ccc(C(=O)c3ccccc3)cc2)cc1-c1ccccc1)C(=O)O [Example 702]
67%	CSCC[C@H](NC(=O)c1ccc(CNc2ccc(C)c(C)c2)cc1-c1ccccc1)C(=O)O [Example 704]
72%	CSCC[C@H](NC(=O)c1ccc(CNc2ccc3c(c2)CCC3)cc1-c1ccccc1)C(=O)O [Example 705]
53%	CSCC[C@H](NC(=O)c1ccc(CNc2ccc3c(c2)Cc2ccccc2-3)cc1-c1ccccc1)C(=O)O [Example 706]
76%	CSCC[C@H](NC(=O)c1ccc(CNc2ccc3ncccc3c2)cc1-c1ccccc1)C(=O)O [Example 708]
55%	CSCC[C@H](NC(=O)c1ccc(CNc2cc(C)cc(C)c2)cc1-c1ccccc1)C(=O)O [Example 709]
45%	CSCC[C@H](NC(=O)c1ccc(CNc2cc(C(=O)O)cc(C(=O)O)c2)cc1-c1ccccc1)C(=O)O [Example 710]
46%	CCN(Cc1ccc(C(=O)N[C@@H](CCSC)C(=O)O)c(-c2ccccc2)c1)Cc1cc([N+](=O)[O-])ccc1O [Example 711]
69%	CSCC[C@H](NC(=O)c1ccc(CNCc2cc(Cl)cc(Cl)c2)cc1-c1ccccc1)C(=O)O [Example 712]
40%	CSCC[C@H](NC(=O)c1ccc(CNC(CO)C(O)c2ccccc2)cc1-c1ccccc1)C(=O)O (stereo partly shown) [Example 713]
56%	CSCC[C@H](NC(=O)c1ccc(CNC(CO)Cc2ccccc2)cc1-c1ccccc1)C(=O)O (stereo partly shown) [Example 714]
67%	CSCC[C@H](NC(=O)c1ccc(CN[C@H](CC2CCCCC2)[C@H](O)[C@H](O)CC(C)C)cc1-c1ccccc1)C(=O)O [Example 715]
40%	CSCC[C@H](NC(=O)c1ccc(CNCCCCc2ccccc2)cc1-c1ccccc1)C(=O)O [Example 718]

Same assay, conditions: Table 2; 1 × 10^-6 M

% inhibition at 1 × 10^-6 M	SMILES
32%	CSCCC(CO)NCc1ccc(C(=O)N[C@@H](CCSC)C(=O)O)c(-c2ccccc2)c1 (stereo partly shown) [Example 633]
72%	CSCC[C@H](NC(=O)c1ccc(CNCCN(C(C)C)C(C)C)cc1-c1ccccc1)C(=O)O [Example 636]
34%	CSCC[C@H](NC(=O)c1ccc(CNCCN2CCCC2)cc1-c1ccccc1)C(=O)O [Example 641]
48%	CSCC[C@H](NC(=O)c1ccc(CNc2ccccc2F)cc1-c1ccccc1)C(=O)O [Example 642]
54%	CSCC[C@H](NC(=O)c1ccc(CNc2ccccc2C(N)=O)cc1-c1ccccc1)C(=O)O [Example 644]
37%	CSCC[C@H](NC(=O)c1ccc(CNc2ccccc2Oc2ccccc2)cc1-c1ccccc1)C(=O)O [Example 645]
58%	CCOC(=O)c1ccc(NCc2ccc(C(=O)N[C@@H](CCSC)C(=O)O)c(-c3ccccc3)c2)cc1 [Example 646]
86%	CSCC[C@H](NC(=O)c1ccc(CN(CCC#N)Cc2ccccc2)cc1-c1ccccc1)C(=O)O [Example 649]
68%	COc1ccccc1CNCc1ccc(C(=O)N[C@@H](CCSC)C(=O)O)c(-c2ccccc2)c1 [Example 650]
41%	COc1cccc(CNCc2ccc(C(=O)N[C@@H](CCSC)C(=O)O)c(-c3ccccc3)c2)c1 [Example 652]
62%	CSCC[C@H](NC(=O)c1ccc(CNCc2ccc(N)cc2)cc1-c1ccccc1)C(=O)O [Example 653]
35%	COc1ccc(CNCc2ccc(C(=O)N[C@@H](CCSC)C(=O)O)c(-c3ccccc3)c2)c(OC)c1 [Example 655]
32%	CSCCC(NC(=O)c1ccc(CNC(CO)c2ccccc2)cc1-c1ccccc1)C(=O)O (stereo not shown) [Example 657]
73%	CSCCC(NC(=O)c1ccc(CNC(CO)c2ccccc2)cc1-c1ccccc1)C(=O)O (stereo not shown) [Example 658]
45%	CSCC[C@H](NC(=O)c1ccc(CNCC(O)c2cccc(O)c2)cc1-c1ccccc1)C(=O)O (stereo partly shown) [Example 661]
68%	CSCC[C@H](NC(=O)c1ccc(CNC(CO)Cc2ccc(Cl)cc2)cc1-c1ccccc1)C(=O)O (stereo partly shown) [Example 662]
55%	CSCC[C@H](NC(=O)c1ccc(CN[C@@H](/C=C\CC(C)C)CC2CCCCC2)cc1-c1ccccc1)C(=O)O [Example 665]

% inhibition at 1 × 10^-6 M	SMILES
82%	CSCC[C@H](NC(=O)c1ccc(CN[C@H](/C=C\CC(C)C)CC2CCCCC2)cc1-c1ccccc1)C(=O)O [Example 666]
83%	CSCC[C@H](NC(=O)c1ccc(CNCCSc2ccccc2)cc1-c1ccccc1)C(=O)O [Example 667]
36%	CSCC[C@H](NC(=O)c1ccc(CNc2ccccc2CCO)cc1-c1ccccc1)C(=O)O [Example 671]
59%	CSCC[C@H](NC(=O)c1ccc(CNc2ccccc2N2CCCCC2)cc1-c1ccccc1)C(=O)O [Example 673]
37%	CSCC[C@H](NC(=O)c1ccc(CNc2cccc(I)c2)cc1-c1ccccc1)C(=O)O [Example 677]
31%	CSCC[C@H](NC(=O)c1ccc(CNc2cccc(C(N)=O)c2)cc1-c1ccccc1)C(=O)O [Example 682]
34%	CSCC[C@H](NC(=O)c1ccc(CNc2ccc(OC(F)(F)F)cc2)cc1-c1ccccc1)C(=O)O [Example 691]
53%	CSCC[C@H](NC(=O)c1ccc(CNc2ccc(C(O)(C(F)(F)F)C(F)(F)F)cc2)cc1-c1ccccc1)C(=O)O [Example 693]
45%	CSCC[C@H](NC(=O)c1ccc(CNc2ccc(CCO)cc2)cc1-c1ccccc1)C(=O)O [Example 694]
39%	CSCC[C@H](NC(=O)c1ccc(CNc2ccc(N3CCCCC3)cc2)cc1-c1ccccc1)C(=O)O [Example 697]
40%	CSCC[C@H](NC(=O)c1ccc(CNc2ccc(-c3nc4ccccc4s3)cc2)cc1-c1ccccc1)C(=O)O [Example 703]
69%	CSCC[C@H](NC(=O)c1ccc(CN[C@@H](CC2CCCCC2)[C@@H](O)[C@@H](O)CC(C)C)cc1-c1ccccc1)C(=O)O [Example 716]
90%	CSCC[C@H](NC(=O)c1ccc(CN(C)CC(O)CO)cc1-c1ccccc1C)C(=O)O (stereo partly shown) [Example 719]
87%	CCc1nnc(NCc2ccc(C(=O)N[C@@H](CCSC)C(=O)O)c(-c3ccccc3C)c2)s1 [Example 723]
87%	COC(=O)c1cscc1NCc1ccc(C(=O)N[C@@H](CCSC)C(=O)O)c(-c2ccccc2C)c1 [Example 724]
81%	CSCC[C@H](NC(=O)c1ccc(CNc2ccc(S(=O)(=O)Nc3onc(C)c3C)cc2)cc1-c1ccccc1C)C(=O)O [Example 726]
